TGI and GI50 data for 15 compounds are collected here from PubChem BioAssay (NCI).

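Five compound concentrations were applied to cells in 96-well plates for 48 hours; endpoints were derived by simple linear interpolation of the resulting dose-response curve. The concentration for 50% growth inhibition is given as GI50. TGI: total growth inhibition.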

What all share (assay): growth of human tumour cells (NCI), 48 h
Experiment [1] has as its system A549 NSCLC.
In experiment [2] the test system is ACHN renal.
Experiment [3] has as its system MDA-MB-435.
Experiment [4] relates to NCI-H23 lung.
Experiment [5] deals with SK-MEL-5 melanoma.
In experiment [6] the test system is T-47D breast.
Experiment [7] concerns U251 CNS.
The test system of experiment [8] is UACC-257 melanoma.
For experiment [9], the system named is HOP-92 NSCLC.
The subject of experiment [10] is OVCAR-5 ovarian.

On to `CO[C@H]1SC[C@H](OC(C)=O)[C@H](OC(C)=O)[C@H]1OC(C)=O`, for which the TGI in experiment [1], in experiment [2], in [3], in experiment [4], in experiment [5] and in experiment [6] was above 100 µM throughout. In addition, the TGI in experiment [7] and in experiment [8] was above 100 µM throughout.
On to `O=P(O)(O)c1ccccc1Oc1ccccc1`, for which the TGI in experiment [1], in experiment [2], in experiment [9], in [3], in experiment [4] and in experiment [10] was above 100 µM throughout. The TGI in [5], in [7] and in [8] was above 100 µM in each case.
Regarding `O=C(O)c1cccc2cccc(-c3cccc4cccc(C(=O)O)c34)c12`, the TGI in experiment [1], in [2], in [3], in [4], in [10] and in experiment [5] was above 100 µM each time. Further, the TGI in [6], in experiment [7] and in [8] was above 100 µM in each case.
With `CS(=O)(=O)CSCSSCS(C)(=O)=O`, the TGI was above 100 µM in experiment [1]; above 100 µM in experiment [2]; 98.2 µM in experiment [9]; above 95.9 µM in [4]; above 93.8 µM in experiment [10]; above 100 µM in experiment [5]. The TGI in experiment [7] and in [8] was above 100 µM in each case.
In the case of `O=C(N/N=C(/CCN1CCCC1)CC(c1ccccc1)c1c(O)c2ccccc2oc1=O)c1ccncc1` (stereo not given), the TGI in [1], in experiment [2], in experiment [9], in [4], in experiment [10] and in [5] was above 100 µM throughout. Besides, the TGI in [7] and in experiment [8] was above 100 µM in each case.
`COc1ccc(Nc2nc(N)c(C(=O)c3c[nH]c4ccccc34)s2)cc1`: the TGI in experiment [1] is above 61.3 µM; in [2], above 100 µM; in experiment [9], 29.3 µM; in experiment [4], above 95 µM; in [10], above 80.5 µM; in [5] it was 14.4 µM. For the same compound, the TGI was above 88.3 µM in experiment [6], above 100 µM in experiment [7] and above 91.4 µM in experiment [8].
Take `Cc1cc(C)c2c(=O)cc(-c3cccc(F)c3)[nH]c2n1`: the TGI was above 100 µM in [1]; above 100 µM in experiment [2]; 0.489 µM in experiment [9]; 11.2 µM in experiment [4]; above 100 µM in experiment [10]; 6.38 µM in [5]. Also, the TGI in experiment [6] was above 100 µM; in experiment [7], above 84.1 µM; in experiment [8], above 100 µM.
Turning to `Cc1ccc(C(=O)N/N=C(\N=Nc2ccccc2)c2ccc(N(C)C)cc2)cc1`, the TGI in experiment [1], in experiment [9], in experiment [3], in experiment [4], in experiment [10] and in experiment [5] was above 100 µM in each case. Moreover, the TGI in experiment [7] and in experiment [8] was above 100 µM in each case.
Consider `CCC1=C(C(C)=O)[C@@H]2CCCCC[C@@H](C(=O)OC)C2C1=O` (stereo not given in full), for which the TGI in experiment [1], in experiment [2], in [9], in [4], in [10] and in [5] was above 100 µM each time. Further, the TGI in experiment [7] and in experiment [8] was above 100 µM each time.
`CCc1c(CNc2ccc(C(=O)NC(CC(=O)O)C(=O)O)cc2)ccc2nc(N)nc(N)c12` (stereo not given): the TGI in [1], in experiment [2], in experiment [9], in [3], in [4] and in [10] was above 1000 µM in each case. Moreover, the TGI in experiment [5] and in [7] was above 1000 µM each time. Besides, the GI50 in experiment [9] was above 1000 µM; in [7], 372 µM.
Take `CCCCOc1ccc(OCCCCCCCCCC[N+](C)(C)C)cc1`: the TGI came to 15.2 µM in experiment [1]; 3.65 µM in experiment [9]; 11 µM in experiment [4]; 17.2 µM in [10]; 3.81 µM in experiment [5]; 9.16 µM in [7]. The same compound registered a TGI in experiment [8] of 17.8 µM.
For `O=S(=O)(O)c1ccc(N=Nc2ccc(N=Nc3ccc(/C=C/c4ccc(N=[N+]([O-])c5ccc(/C=C/c6ccc(N=Nc7ccc(N=Nc8ccc(S(=O)(=O)O)cc8)cc7)cc6S(=O)(=O)O)c(S(=O)(=O)O)c5)cc4S(=O)(=O)O)c(S(=O)(=O)O)c3)cc2)cc1`, the TGI in experiment [1], in experiment [9], in experiment [4], in experiment [10], in [5] and in experiment [7] was above 100 µM throughout. Moreover, the TGI in experiment [8] was above 100 µM.
Take `Cc1cc(C)nc(NS(=O)(=O)c2ccc(Nc3c4ccccc4nc4c(C(=O)N5CCN(CCOS(C)(=O)=O)CC5)cccc34)cc2)n1`: the TGI in experiment [1], in experiment [2], in [9], in experiment [4], in experiment [10] and in experiment [5] was above 100 µM each time. Besides, the TGI in experiment [7] and in [8] was above 100 µM in each case.
With `CC(C)(C)OC(=O)NC(Cc1ccccc1)NC(=O)NC(=O)OCc1ccccc1` (stereo not given), the TGI in experiment [1], in experiment [2], in experiment [3], in experiment [4], in experiment [10] and in experiment [5] was above 100 µM throughout. Moreover, the TGI in experiment [7] and in experiment [8] was above 100 µM throughout.
Take `CCC(O)(Cc1ccc(OC)cc1)c1ccc(OC)cc1` (stereo not given): the TGI in experiment [1], in [2], in experiment [9], in experiment [3], in experiment [4] and in [10] was above 100 µM each time. Further, the TGI in experiment [5], in experiment [7] and in experiment [8] was above 100 µM throughout.
